# Read-outs that look alike come from different tables or passages of the source.
# Tests used:
# [1] = test system: Caenorhabditis elegans; type: in vivo
# Method: In the second type of experiment, an animal model system was used to study changes in the gut microbiome behavior. Caenorhabditis elegans (C. elegans), a nematode commonly used as an organism model, was used in the present study. Reduction of oxidative stress was determined in the C. elegans model. Butyrate has previously been shown in rodent and porcine studies to ameliorate oxidative stress in the intestine generated via hydrogen peroxide or Diquat dibromide exposure. Thus, an oxidative stress assay is a rapid indirect method of determining whether the tributyrin doses proposed in this study can produce beneficial butyrate in vivo.
# Previous studies have shown that this concentration of Paraquat will kill adult C. elegans in liquid culture within 24 hours of exposure via the generation of superoxide anions that lead to oxidative damage of vital cellular components. The standard methods of growing the animals, treating with Paraquat, washing out the Paraquat, and observing survival at 12 hours post Paraquat treatment have been previously described. One group received only Paraquat as a positive control, while a second group received nothing as a negative control, and all others received the therapeutic treatments. […]
# In the C. elegans series of studies, the human equivalent dose (HED) of tributyrin was determined in the following manner. A typical human stomach size of 250 ml was used as a baseline. […] Tributyrin is soluble in DMSO up to a maximum concentration of 100 mg/ml, which is equivalent to 330.73 mM. C. elegans can be exposed to a 1% solution of DMSO in aqueous standard nematode growth media without compromising its viability. […]
# [2] = cited from earlier work
# [3] = test system: mucosal damage in experimental colitis; conditions: DSS colitis, 5 g/kg diet, cited from earlier work
# [4] = after ingestion, cited from earlier work
# [5] = test system: gut microbiota starter cultures (human feces from 6 volunteers); assay: ex vivo simulation of colon fermentation with human fecal starter cultures; butyrate generation by chromatography; type: cell-based; conditions: for Butyrate Generation: after 48 hours of fermentation
# Method: In the first type of experiment, an ex-vivo model system is used. In this model system, an ex vivo simulation of the fermentation that occurs in the colon was used. Human feces from 6 volunteers were used as a gut microbiota starter cultures. The test materials were added to this system and butyrate generation was determined after 48 hours of fermentation, compared to controls for each set. Butyrate generation was measured using chromatography.
# In this series of experiments the human equivalent dose (HED) was determined to be 1 gram/day of ingested prebiotic in-vivo corresponds to approximately 1 g/L in-vitro dose. Therefore a 10 mg/ml in-vitro dose is equivalent to 10 mg/day HED.
# [6] = test system: intestinal barrier and liver; conditions: ethanol-exposed mice, diet supplemented 5 mM, 10 days; cited from earlier work
# [7] = solubility of tributyrin in DMSO; type: physicochemical; conditions: organic solvent or mixture, equivalent of 100 mg/ml, read-out: maximum concentration soluble in DMSO
# Method: In the C. elegans series of studies, the human equivalent dose (HED) of tributyrin was determined in the following manner. A typical human stomach size of 250 ml was used as a baseline. 100 mg per serving per day of tributyrin for a 60 Kg adult is equivalent to 400 μg/ml (˜1.32 mM). Tributyrin is soluble in DMSO up to a maximum concentration of 100 mg/ml, which is equivalent to 330.73 mM. C. elegans can be exposed to a 1% solution of DMSO in aqueous standard nematode growth media without compromising its viability. Doses between 10 mg HED [40 μg/ml (˜0.13 mM)], and 100 mg HED [400 μg/ml (˜1.32 mM)] were used.
# [8] = Example 4, probiotic alone, test dose 5*10^7 CFU/mL, blank 2.78
compound,measurement,setting,value
"C[n+]1ccc(-c2cc[n+](C)cc2)cc1 [Paraquat, reference compound]",% Survival of Worms at 12 hours,"[1]; Paraquat 250 nM alone (positive control), negative control 98.69",67.63%
"CCCC(=O)OCC(COC(=O)CCC)OC(=O)CCC [Tributyrin, propane-1,2,3-triyl tributyrate]",maximum concentration soluble in DMSO,[2],≤ 100 mg/mL
same,mucosal architecture,[3]; versus non-supplemented mice,improved mucosal architecture
same,intestinal permeability,[3],reduced intestinal permeability
same,oxidative stress (hydroperoxide),[3],lower level of hydroperoxide
same,peak time of butyrate in plasma,[4]; in words,on the order of hours
same,Butyrate Generation,"[5]; Example 1, test dose 50 mg/L (HED 50 mg per day), blank 2.86",3.22 mM
same,Butyrate Generation,"[5]; Example 1, test dose 100 mg/L (HED 100 mg per day), blank 2.86",3.73 mM
same,butyrate generation compared with inulin at HED 4 g/day,"[5]; Example 1, tributyrin HED 50 to 100 mg/day, in words",about the same amount of butyrate
same,butyrate generation compared with XOS at HED 1 g/day,"[5]; Example 2, tributyrin 100 mg/day HED, in words",equivalent butyrate generation
same,Butyrate Generation,"[5]; Examples 2 and 4, test dose 100 mg/L (HED 100 mg per day), blank 2.78",3.51 mM
same,liver injury,[6],mitigated liver injury
same,tight-junction (TJ) protein staining in proximal colon and ileum,[6],maintained immunoreactive staining intensity of TJ proteins
same,solubility,[7],331 mM
same,oxidative stress,"[1]; Example 3, tributyrin HED 10 and 100 mg/day, in words",significant reduction in oxidative stress
same,% Survival of Worms at 12 hours,"[1]; test dose 40 ug/mL (HED 10 mg per day), no Paraquat",97.24%
same,% Survival of Worms at 12 hours,"[1]; test dose 40 ug/mL + Paraquat 250 nM (HED 10 mg per day), Paraquat alone 67.63",68.86%
same,% Survival of Worms at 12 hours,"[1]; test dose 400 ug/mL (HED 100 mg per day), no Paraquat",99.23%
same,% Survival of Worms at 12 hours,"[1]; test dose 400 ug/mL + Paraquat 250 nM (HED 100 mg per day), Paraquat alone 67.63",73.63%
"CCCC(=O)[O-].[Na+] [sodium butyrate, Sodium butyrate, reference compound]",peak time of butyrate in plasma,[4],15 to 45 min
Inulin [reference compound],Butyrate Generation,"[5]; Example 1, test dose 4 g/L (HED 4 g per day), blank 2.86",3.62 mM
Lacticaseibacillus rhamnosus GG [LGG],Butyrate Generation,[5]; [8],3.15 mM
Limosilactobacillus reuteri,Butyrate Generation,[5]; [8],2.72 mM
"partially hydrolyzed guar gum [PHGG, reference compound]",% Survival of Worms at 12 hours,"[1]; test dose 20 mg/mL (HED 5 g per day), no Paraquat",96.24%
same,% Survival of Worms at 12 hours,"[1]; test dose 20 mg/mL + Paraquat 250 nM (HED 5 g per day), Paraquat alone 67.63",49.39%
same,% Survival of Worms at 12 hours,"[1]; test dose 40 mg/mL (HED 10 g per day), no Paraquat",96.27%
same,% Survival of Worms at 12 hours,"[1]; test dose 40 mg/mL + Paraquat 250 nM (HED 10 g per day), Paraquat alone 67.63",62.99%
"xylooligosaccharide [XOS, reference compound]",Butyrate Generation,"[5]; Examples 2 and 4, test dose 1 g/L (HED 1 g per day), blank 2.78",3.30 mM
